For test [1], the system named is SSPN-HiBiT protein (sarcospan). The test can be described thus: C2C12 SSPN-HiBiT protein reporter assay (12-well and 384-well format). It is filed as cell-based, murine. The method, then: C2C12 SSPN-HiBiT myoblasts were seeded at 25,000 cells per well in 2 ml of growth media in 12 well-plates and incubated for 3 days. Upon reaching confluency, the growth media was replaced with 2 ml of differentiation media. At day 2 of differentiation, the media on the cells was replaced with 2 ml of differentiation media containing compounds at a final concentration of 5.5 μM in 0.06% DMSO. For vehicle control-treated cells, 0.06% DMSO was added to the cells. After 48 hrs the cells were washed with PBS and frozen for 2-24 hrs. The plates containing cells were thawed on ice and 100 μl of ice-cold modified RIPA buffer containing 1% Triton X-100, 0.05% DOC, 0.05% SDS, and Halt Protease Inhibitor was added to each well. Cells were scratched, transferred into 1.5 ml tubes, and centrifuged for 20 min at 16,000×g at 4° C. The cell lysates were transferred into new tubes. DC assay was performed on cell lysates to determine protein concentration. White walled, white bottom 384-well microplates (Greiner) were prefilled with 15 μl of PBS and 15 μl of cell lysates were added to each well in triplicate. Then 30 μl Nano-Glo HiBiT Lytic Detection working solution was added to each well and incubated for 30 min at RT with shaking. The luminescence was measured on the EnVision plate reader and the signal was normalized to protein concentration and signal from vehicle-treated controls.
C2C12 SSPN-HiBiT myoblasts were seeded at 500 cells per well in 50 μl of growth media in 384-well white, clear bottom microplates (Greiner) and incubated for 3 days. Upon reaching confluency, the growth media was replaced with 50 μl of differentiation media consisting of phenol-red free DMEM with 2% horse serum (Sigma-Aldrich) using an EL406 combination washer dispenser (Biotek). At day 2 of differentiation, the media on the cells was aspirated, left with a residual volume of 10 μl, and replaced with 30 μl of fresh differentiation media. 0.5 μl of small molecule in DMSO or DMSO alone (for vehicle and positive control wells) were added to each well using a Biomek Fx (Beckman). To ensure proper mixing of the DMSO, 50 μl of additional differentiation media was added to all wells except the positive control treated wells. The final concentration of compound in each treated well was 0.5-10 μM in 0.55% DMSO and 0.55% DMSO only for vehicle. After 48 hrs of incubation, the plate was washed with phenol red-free DMEM, aspirated, and left with a residual volume of 5 μl using EL406 combination washer dispenser. After the wash, 25 μl of differentiation media containing 12 μM DRAQ5 nuclear stain was added to reach a final concentration 10 μM in each well and incubated for 15 min at 37° C. with 5% CO2. The cells were imaged using ImageXpress Micro Confocal High Content Imaging System (Molecular Devices). The nuclei count of imaged cells were determined using a custom module analysis in MetaXpress Analysis software (Molecular Devices). After imaging and analysis, the plate was aspirated, left with a residual volume of 5 μl and placed at −80° C. for 2-24 hrs. The plate was thawed at RT and 25 μl of PBS was added, followed by 30 μl of Nano-Glo HiBiT Lytic Detection working solution prepared according manufacturer recommendations. Luminescence was measured using the EnVision plate reader and the signal of each well was normalized to nuclei count and signal from vehicle-treated controls.
In order to effectively test new analogues, we created method for detecting SSPN protein in cells, e.g., SSPN-HiBiT. SSPN-HiBiT based on a murine C2C12 cell line expressing endogenous SSPN protein with an N-term fusion protein called the HiBiT, an 11 amino acid subunit of a luciferase enzyme (FIG. 10a). The SSPN-HiBiT protein is quantified through addition of substrate and a larger subunit of the luciferase enzyme to catalyze the formation of luminescent signal. […]

The test system of another test is SSPN mRNA. The test is described as follows: SSPN gene expression in C2C12, H2K WT and H2K mdx myoblasts. It counts as cell-based, murine. Particulars: 24 hours, 1, 5 and 10 μM. The method, then:
FIG. 9. OT-9 is effective in multiple myoblast lines. […] Myoblasts were treated for 24 hours with 1, 5, and 10 μM of OT-9 or PC1-36. Gene expression was normalized to β-actin and vehicle-treated cells (0.1% DMSO). Data represents individual replicates and mean value. n=3-6. SSPN, sarcospan; R.U., relative units. *p<0.05, **p<0.01, ***p<0.001, ****p<0.0001.
RNA from myotubes treated for 48 hrs was extracted from cells using Trizol-based (Thermo Fisher Scientific) phase separation, Chomczynski et al., Biotechniques. 1993; 15(3):532-4, 6-7. RNA concentrations were determined using a NanoDrop 1000 (Thermo Fisher Scientific) and 750 ng of RNA in a 20 Id reaction was reverse transcribed using iScript cDNA synthesis (Bio-Rad) with the following cycling conditions: 25° C. for 5 mins, 42° C. for 30 mins, 85° C. for 5 mins. For mouse qPCR, SsoFast EvaGreen Supermix (Bio-Rad), 400 nM of each optimized forward and reverse primer (SSPN F: 5′ […] 3′, SSPN R: 5′ […] 3′, BACT F: 5′ […] 3′, BACT R: 5′ […] 3′), and cDNA corresponding to 37.5 ng RNA were used to amplify cDNA measured by QuantStudio 5 Real-Time PCR System (Thermo Fisher Scientific) with the following reaction conditions: 55° C. for 2 mins, 95° C. for 2 mins, 40 cycles of 95° C. for 10 seconds and 62° C. for 30 seconds, and dissociation stage. […]

Experimental findings from patent US20230348394A1, “COMPOSITIONS AND METHODS FOR TREATING MUSCULAR DYSTROPHIES” (The Regents of the University of California, priority 2020, published 2023) are described below.

On to `CCN(CC)c1ccc2cc(C(=O)Nc3ccc(C(=O)N4CCCCCC4)cc3)c(=O)oc2c1` [OT-9], for which, in test [1] (0.5-10 μM, 12-well and 384-well plate formats), the SSPN-HiBiT reporter response result was “dose-sensitive increases in SSPN”. In addition, in test [1] (Table 1, *p<0.05), the “SSPN-HiBiT, fold change over vehicle” value is recorded as 2.29* fold change over vehicle. Moreover, in the test on SSPN mRNA, the “SSPN mRNA levels in myoblasts” value is recorded as “increased SSPN mRNA levels in all myoblast lines”.
